Values of other authors as cited in patent US20070265281A1, “Organic Compounds and Their Uses” (priority 2006, published 2007).

Tested on: HCV
Conditions: ribavirin alone

NC(=O)c1ncn([C@@H]2O[C@H](CO)[C@@H](O)[C@H]2O)n1 [Ribavirin, 1-β-D-ribofuranosyl-1-1,2,4-triazole-3-caroxamide]
serum levels of HCV-RNA (patients): does not lower | patients in whom serum amino transferase levels are reduced to normal: 40%
